According to patent publication US20220340633A1 (Adepthera LLC, priority 2016, published 2022):
“Also recorded” adds a separate entry of the source.

Legend:
[1] = tested on: primary human lymphatic endothelia cells (HLEC); experiment: HLEC survival in medium with 0.1% FBS, MTS assay; conditions: 30, 100, and 300 nM, 72 hrs
Protocol: The cells were cultured for 72 hrs, and cell viability was assayed with the MTS assay (Promega).

[2] = biological target: T1, CLR/RAMP2 receptor (Homo sapiens, UniProt O60895+Q16602); experiment: CLR/RAMP2 arrestin receptor activation assay (agonist); assay type: cell-based; conditions: for Emax: CHO-K1, read-out: CLR/RAMP 2 Max Activity % of positive control, CHO-K1 cells, % of positive control (ADM)
T1 construct: host or cells: CHO-K1 cells
T1 sequence (Q16602 23-461): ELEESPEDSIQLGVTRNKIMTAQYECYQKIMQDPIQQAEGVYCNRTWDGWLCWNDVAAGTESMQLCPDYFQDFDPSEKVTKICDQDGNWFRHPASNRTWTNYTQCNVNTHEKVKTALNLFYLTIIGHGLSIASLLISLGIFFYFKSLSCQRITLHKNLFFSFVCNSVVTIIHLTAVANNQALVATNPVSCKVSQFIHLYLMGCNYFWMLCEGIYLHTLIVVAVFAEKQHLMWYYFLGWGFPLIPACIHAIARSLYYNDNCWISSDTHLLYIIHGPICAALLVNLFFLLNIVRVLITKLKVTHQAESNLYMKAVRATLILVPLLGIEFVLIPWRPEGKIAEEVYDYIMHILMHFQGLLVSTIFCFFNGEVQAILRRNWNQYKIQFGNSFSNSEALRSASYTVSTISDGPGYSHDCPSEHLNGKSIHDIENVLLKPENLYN
T1 sequence (O60895 43-175): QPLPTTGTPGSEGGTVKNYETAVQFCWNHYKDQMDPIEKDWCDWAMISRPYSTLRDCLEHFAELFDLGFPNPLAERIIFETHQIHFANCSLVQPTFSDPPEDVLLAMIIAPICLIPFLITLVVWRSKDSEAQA
Protocol: (§1) Using a receptor activation assay, the dose-dependent stimulatory response of peptide agonists of the present invention on a CLR/RAMP1 receptor, a CLR/RAMP2, or a CLR/RAMP3 receptor complex was determined. A cell line carrying the recombinant CLR/RAMP1, CLR/RAMP2, or a CLR/RAMP3 receptor was employed in the assay. Peptide agonist activities were tested, in duplicate, at 10 different concentrations, starting with 1.0 μM and serially diluted 3-fold, in DMSO. […] The CLR/RAMP1 cAMP, CLR/RAMP2 arrestin assays, and CLR/RAMP3 cAMP (DiscoveRx, Fremont, Calif.) were used.

[3] = biological target: CLR/RAMP1 receptor (Homo sapiens, UniProt O60894+Q16602); experiment: CLR/RAMP1 cAMP receptor activation assay (agonist); assay type: cell-based; parameters: host or cells: 1321N1 cells; conditions: 1321-N1, read-out: CLR/RAMP 1 Max Activity % of positive control, 1321N1 cells; % of positive control (β-CGRP)
Sequence of CLR/RAMP1 receptor (Q16602 23-461): as the sequence (Q16602 23-461) above
Sequence of CLR/RAMP1 receptor (O60894 27-148): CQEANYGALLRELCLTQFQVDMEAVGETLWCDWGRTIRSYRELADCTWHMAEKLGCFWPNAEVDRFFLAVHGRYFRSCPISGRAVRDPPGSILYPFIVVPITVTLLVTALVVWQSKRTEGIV
Protocol: as §1

Compound | HLEC survival (in words) [1] | Emax [2] | receptor specificity of agonist ([2]; CLR/RAMP2 versus CLR/RAMP1) | Emax [3]
CCCCCCCCCCCCCCCC(=O)NCCCC[C@H](NC(=O)[C@@H](NC(C)=O)[C@@H](C)O)C(=O)N[C@@H](CCCCN)C(=O)N[C@H](C(=O)N[C@@H](CC(C)C)C(=O)N[C@@H](CCCNC(=N)N)C(=O)N[C@H](C(=O)NCC(=O)N[C@H]1CSSC[C@@H](C(=O)N[C@H](C(=O)N[C@H](C(=O)N[C@@H](CCC(N)=O)C(=O)N[C@@H](CCCCN)C(=O)N[C@@H](CC(C)C)C(=O)N[C@@H](C)C(=O)N[C@@H](Cc2c[nH]cn2)C(=O)N[C@@H](CCC(N)=O)C(=O)N[C@H](C(=O)N[C@@H](Cc2ccc(O)cc2)C(=O)N[C@@H](CCC(N)=O)C(=O)N[C@@H](Cc2ccccc2)C(=O)N[C@H](C(=O)N[C@@H](CC(=O)O)C(=O)N[C@@H](CCCCN)C(=O)N[C@@H](CC(=O)O)C(=O)N[C@@H](CCCCN)C(=O)N[C@@H](CC(=O)O)C(=O)N[C@@H](CC(N)=O)C(=O)N[C@@H](CO)C(=O)N[C@@H](C)C(=O)N2CCC[C@H]2C(=O)N[C@H](C(=O)N[C@@H](CC(=O)O)C(=O)N2CCC[C@H]2C(=O)N[C@@H](CO)C(=O)N[C@@H](CO)C(=O)N2CCC[C@H]2C(=O)N[C@@H](Cc2c[nH]cn2)C(=O)N[C@@H](CO)C(=O)N[C@@H](Cc2ccc(O)cc2)C(N)=O)C(C)C)[C@@H](C)O)[C@@H](C)CC)C(C)C)[C@@H](C)O)NC(=O)[C@H]([C@@H](C)O)NC(=O)CNC(=O)[C@H](Cc2ccccc2)NC(=O)[C@H](CCCNC(=N)N)NC1=O)[C@@H](C)O)[C@@H](C)O [SEQ ID NO: 39] | dose-dependently stimulated; also recorded: significantly promote |  |  | 
CCCCCCCCCCCCCCCC(=O)NCCCC[C@H](NC(C)=O)C(=O)NCC(=O)N[C@H]1CSSC[C@@H](C(=O)N[C@H](C(=O)N[C@H](C(=O)N[C@@H](CCC(N)=O)C(=O)N[C@@H](CCCCN)C(=O)N[C@@H](CC(C)C)C(=O)N[C@@H](C)C(=O)N[C@@H](Cc2c[nH]cn2)C(=O)N[C@@H](CCC(N)=O)C(=O)N[C@H](C(=O)N[C@@H](Cc2ccc(O)cc2)C(=O)N[C@@H](CCC(N)=O)C(=O)N[C@@H](Cc2ccccc2)C(=O)N[C@H](C(=O)N2CCC[C@H]2C(=O)N[C@@H](C)C(=O)NCC(=O)N[C@@H](CCCNC(=N)N)C(=O)N[C@@H](CCC(N)=O)C(=O)N[C@@H](CC(=O)O)C(=O)N[C@@H](CO)C(=O)N[C@@H](C)C(=O)N2CCC[C@H]2C(=O)N[C@H](C(=O)N[C@@H](CC(=O)O)C(=O)N2CCC[C@H]2C(=O)N[C@@H](CO)C(=O)N[C@@H](CO)C(=O)N2CCC[C@H]2C(=O)N[C@@H](Cc2c[nH]cn2)C(=O)N[C@@H](CO)C(=O)N[C@@H](Cc2ccc(O)cc2)C(N)=O)C(C)C)[C@@H](C)O)[C@@H](C)CC)C(C)C)[C@@H](C)O)NC(=O)[C@H]([C@@H](C)O)NC(=O)CNC(=O)[C@H](Cc2ccccc2)NC(=O)[C@H](CCCNC(=N)N)NC1=O [SEQ ID NO: 33] | dose-dependently stimulated; also recorded: significantly promote |  |  | 
CC[C@H](C)[C@H](NC(=O)[C@H](CCC(N)=O)NC(=O)[C@H](Cc1c[nH]cn1)NC(=O)[C@H](C)NC(=O)[C@H](CC(C)C)NC(=O)[C@H](CCCCN)NC(=O)[C@H](CCC(N)=O)NC(=O)[C@@H](NC(=O)[C@@H](NC(=O)[C@@H]1CSSC[C@H](NC(=O)CNC(=O)[C@H](CCCCN)NC(C)=O)C(=O)N[C@@H](CCCNC(=N)N)C(=O)N[C@@H](Cc2ccccc2)C(=O)NCC(=O)N[C@@H]([C@@H](C)O)C(=O)N1)[C@@H](C)O)C(C)C)C(=O)N[C@@H](Cc1ccc(O)cc1)C(=O)N[C@@H](CCC(N)=O)C(=O)N[C@@H](Cc1ccccc1)C(=O)N[C@H](C(=O)N[C@@H](CC(=O)O)C(=O)N[C@@H](CCCCN)C(=O)N[C@@H](CC(=O)O)C(=O)N[C@@H](CCCCN)C(=O)N[C@@H](CC(=O)O)C(=O)N[C@@H](CC(N)=O)C(=O)N[C@@H](CO)C(=O)N[C@@H](C)C(=O)N1CCC[C@H]1C(=O)N[C@H](C(=O)N[C@@H](CC(=O)O)C(=O)N1CCC[C@H]1C(=O)N[C@@H](CO)C(=O)N[C@@H](CO)C(=O)N1CCC[C@H]1C(=O)N[C@@H](Cc1c[nH]cn1)C(=O)N[C@@H](CO)C(=O)N[C@@H](Cc1ccc(O)cc1)C(N)=O)C(C)C)[C@@H](C)O [SEQ ID NO: 59] | minimal effects; also recorded: negligible effects |  |  | 
CCCCCCCCCCCCCCCC(=O)N[C@@H](CCCCN)C(=O)NCC(=O)N[C@H]1CSSC[C@@H](C(=O)N[C@H](C(=O)N[C@H](C(=O)N[C@@H](CCC(N)=O)C(=O)N[C@@H](CCCCN)C(=O)N[C@@H](CC(C)C)C(=O)N[C@@H](C)C(=O)N[C@@H](Cc2c[nH]cn2)C(=O)N[C@@H](CCC(N)=O)C(=O)N[C@H](C(=O)N[C@@H](Cc2ccc(O)cc2)C(=O)N[C@@H](CCC(N)=O)C(=O)N[C@@H](Cc2ccccc2)C(=O)N[C@H](C(=O)N[C@@H](CC(=O)O)C(=O)N[C@@H](CCCCN)C(=O)N[C@@H](CC(=O)O)C(=O)N[C@@H](CCCCN)C(=O)N[C@@H](CC(=O)O)C(=O)N[C@@H](CC(N)=O)C(=O)N[C@@H](CO)C(=O)N[C@@H](C)C(=O)N2CCC[C@H]2C(=O)N[C@H](C(=O)N[C@@H](CC(=O)O)C(=O)N2CCC[C@H]2C(=O)N[C@@H](CO)C(=O)N[C@@H](CO)C(=O)N2CCC[C@H]2C(=O)N[C@@H](Cc2c[nH]cn2)C(=O)N[C@@H](CO)C(=O)N[C@@H](Cc2ccc(O)cc2)C(N)=O)C(C)C)[C@@H](C)O)[C@@H](C)CC)C(C)C)[C@@H](C)O)NC(=O)[C@H]([C@@H](C)O)NC(=O)CNC(=O)[C@H](Cc2ccccc2)NC(=O)[C@H](CCCNC(=N)N)NC1=O [SEQ ID NO: 30] | dose-dependently stimulated; also recorded: significantly promote |  |  | 
CSCC[C@H](NC(=O)[C@H](CC(C)C)NC(=O)[C@H](CCC(N)=O)NC(=O)[C@H](Cc1c[nH]c2ccccc12)NC(=O)[C@H](CC(C)C)NC(=O)[C@H](CCCNC(=N)N)NC(=O)[C@H](Cc1c[nH]cn1)NC(=O)[C@H](CO)NC(=O)[C@H](CC(C)C)NC(=O)[C@H](CC(N)=O)NC(=O)[C@H](CCC(N)=O)NC(=O)[C@@H](NC(=O)[C@H](CCC(N)=O)NC(=O)[C@@H]1CSSC[C@H](NC(=O)CNC(=O)[C@@H](NC(C)=O)C(C)C)C(=O)N[C@@H](C(C)C)C(=O)N[C@@H](CC(C)C)C(=O)NCC(=O)N[C@@H]([C@@H](C)O)C(=O)N1)C(C)C)C(=O)NCC(=O)N1CCC[C@H]1C(=O)N[C@@H](C)C(=O)NCC(=O)N[C@@H](CCCNC(=N)N)C(=O)N[C@@H](CCC(N)=O)C(=O)N[C@@H](CC(=O)O)C(=O)N[C@@H](CO)C(=O)N[C@@H](C)C(=O)N1CCC[C@H]1C(=O)N[C@H](C(=O)N[C@@H](CC(=O)O)C(=O)N1CCC[C@H]1C(=O)N[C@@H](CO)C(=O)N[C@@H](CO)C(=O)N1CCC[C@H]1C(=O)N[C@@H](Cc1c[nH]cn1)C(=O)N[C@@H](CO)C(=O)N[C@@H](Cc1ccc(O)cc1)C(N)=O)C(C)C [SEQ ID NO: 52, reference compound] | minimal effects; also recorded: negligible effects |  |  | 
CCCCCCCCCCCCCCCC(=O)NCCCC[C@H](NC(=O)COCCOCCN)C(=O)NCC(=O)N[C@H]1CSSC[C@@H](C(=O)N[C@H](C(=O)N[C@H](C(=O)N[C@@H](CCC(N)=O)C(=O)N[C@@H](CCCCN)C(=O)N[C@@H](CC(C)C)C(=O)N[C@@H](C)C(=O)N[C@@H](Cc2c[nH]cn2)C(=O)N[C@@H](CCC(N)=O)C(=O)N[C@H](C(=O)N[C@@H](Cc2ccc(O)cc2)C(=O)N[C@@H](CCC(N)=O)C(=O)N[C@@H](Cc2ccccc2)C(=O)N[C@H](C(=O)N[C@@H](CC(=O)O)C(=O)N[C@@H](CCCCN)C(=O)N[C@@H](CC(=O)O)C(=O)N[C@@H](CCCCN)C(=O)N[C@@H](CC(=O)O)C(=O)N[C@@H](CC(N)=O)C(=O)N[C@H](C(=O)N[C@@H](CC(=O)O)C(=O)N2CCC[C@H]2C(=O)N[C@@H](CO)C(=O)N[C@@H](CO)C(=O)N2CCC[C@H]2C(=O)N[C@@H](Cc2c[nH]cn2)C(=O)N[C@@H](CO)C(=O)N[C@@H](Cc2ccc(O)cc2)C(N)=O)C(C)C)[C@@H](C)O)[C@@H](C)CC)C(C)C)[C@@H](C)O)NC(=O)[C@H]([C@@H](C)O)NC(=O)CNC(=O)[C@H](Cc2ccccc2)NC(=O)[C@H](CCCNC(=N)N)NC1=O [SEQ ID NO: 94] |  | 82% | CLR/RAMP2-specific | 67%
CCCCCCCCCCCCCCCC(=O)NCCCC[C@H](NC(=O)[C@@H](NC(=O)COCCOCCN)[C@@H](C)O)C(=O)N[C@@H](CCCCN)C(=O)N[C@H](C(=O)N[C@@H](CC(C)C)C(=O)N[C@@H](CCCNC(=N)N)C(=O)N[C@H](C(=O)NCC(=O)N[C@H]1CSSC[C@@H](C(=O)N[C@H](C(=O)N[C@H](C(=O)N[C@@H](CCC(N)=O)C(=O)N[C@@H](CCCCN)C(=O)N[C@@H](CC(C)C)C(=O)N[C@@H](C)C(=O)N[C@@H](Cc2c[nH]cn2)C(=O)N[C@@H](CCC(N)=O)C(=O)N[C@H](C(=O)N[C@@H](Cc2ccc(O)cc2)C(=O)N[C@@H](CCC(N)=O)C(=O)N[C@@H](Cc2ccccc2)C(=O)N[C@H](C(=O)N[C@@H](CC(=O)O)C(=O)N[C@@H](CCCCN)C(=O)N[C@@H](CC(=O)O)C(=O)N[C@@H](CCCCN)C(=O)N[C@@H](CC(=O)O)C(=O)N[C@@H](CC(N)=O)C(=O)N[C@H](C(=O)N[C@@H](C)C(=O)N2CCC[C@H]2C(=O)N[C@H](C(=O)N[C@@H](CC(=O)O)C(=O)N2CCC[C@H]2C(=O)N[C@@H](CO)C(=O)N[C@@H](CO)C(=O)N2CCC[C@H]2C(=O)N[C@@H](Cc2c[nH]cn2)C(=O)N[C@@H](CO)C(=O)N[C@@H](Cc2ccc(O)cc2)C(N)=O)C(C)C)C(C)C)[C@@H](C)O)[C@@H](C)CC)C(C)C)[C@@H](C)O)NC(=O)[C@H]([C@@H](C)O)NC(=O)CNC(=O)[C@H](Cc2ccccc2)NC(=O)[C@H](CCCNC(=N)N)NC1=O)[C@@H](C)O)[C@@H](C)O [SEQ ID NO: 42] |  | 76% |  | 56%
